This is an account of results in ChEMBL document CHEMBL3407472, “Multi-parameter optimization of aza-follow-ups to BI 207524, a thumb pocket 1 HCV NS5B polymerase inhibitor. Part 2: Impact of lipophilicity on promiscuity and in vivo toxicity” (Bioorg Med Chem Lett, 2015).

What is called EC50 is the concentration giving half of the maximal effect. Broadly, the logD is lipophilicity at a set pH, counting ionised and neutral species. Low readings indicate lower lipophilicity, high ones higher lipophilicity.

In data set [1] the test system is Hepatitis C virus. Briefly: Antiviral activity against Hepatitis C virus genotype 1b infected in human Huh cells assessed as inhibition of viral replication by RT-PCR-based replicon assay. The class given is functional, cell-based, Hepacivirus hominis.
In data set [2] the test system is Hepatitis C virus. Briefly: Antiviral activity against Hepatitis C virus genotype 1a infected in human Huh cells assessed as inhibition of viral replication by RT-PCR-based replicon assay. The format is functional, cell-based, Hepacivirus hominis. The note with it: subtype 1a.
Data set [3] in a line: Lipophilicity, log D of the compound at pH 7.4. The format is physicochemical. The conditions noted are these: buffer.

With `CCOc1nc(NC(=O)C2(NC(=O)c3ccc4c(c3)c(C)c(-c3ccc(F)cn3)n4C3CCCCC3)CCC2)cnc1/C=C/C(=O)O`, the EC50 in data set [1] was 12 nM; in data set [2], 63 nM. The molecule also registered a logD in data set [3] of 3.1.
For `CCOc1nc(NC(=O)C(C)(C)NC(=O)c2ccc3c(C4CCCC4)c(-c4ncc(Cl)cn4)n(C)c3c2)ccc1/C=C/C(=O)O`, in that order: 6 nM, 7 nM and 4.
For `CCOc1nc(NC(=O)C(C)(C)NC(=O)c2ccc3c(C4CCCC4)c(-c4ccc(Cl)cn4)n(C)c3c2)ccc1/C=C/C(=O)O`, the EC50 amounted to 5 nM in data set [1] and 9 nM in data set [2]. For the same molecule, in data set [3], the logD came out at 4.4.
The corresponding values for `CCOc1nc(NC(=O)C(C)(C)NC(=O)c2ccc3c(C4CCCC4)c(-c4ncc(Br)cn4)n(C)c3c2)ccc1/C=C/C(=O)O` are 5 nM, 8 nM and greater than 4.7.
The corresponding values for `CCOc1nc(NC(=O)C(C)(C)NC(=O)c2ccc3c(c2)c(C)c(-c2ccc(F)cn2)n3C2CCCCC2)ccc1/C=C/C(=O)O` are 3 nM, 14 nM and 3.9.
`CCOc1nc(NC(=O)C(C)(C)NC(=O)c2ccc3c(C4CCCC4)c(-c4ncc(Br)cn4)n(C)c3c2)cnc1/C=C/C(=O)O`: the results for the EC50 in data set [1] and in data set [2] were 14 nM and 67 nM, respectively. The molecule also showed a logD in data set [3] of 3.4.
In the case of `CCOc1nc(NC(=O)C2(NC(=O)c3ccc4c(C5CCCC5)c(-c5ncc(Cl)cn5)n(C)c4c3)CCCC2)ccc1/C=C/C(=O)O`, the EC50 came out at 3 nM in data set [1] and 14 nM in data set [2]. The molecule also returned a logD in data set [3] greater than 6.2.
Take `CCOc1nc(NC(=O)C2(NC(=O)c3ccc4c(C5CCCC5)c(-c5ncc(Cl)cn5)n(C)c4c3)CCCC2)cnc1/C=C/C(=O)O`: the EC50 in data set [1] was determined as 6 nM; in data set [2] it was 27 nM. In data set [3], the logD came to 4.3.
The corresponding values for `COc1nc(NC(=O)C2(NC(=O)c3ccc4c(C5CCCC5)c(-c5ncc(Cl)cn5)n(C)c4c3)CCC2)ccc1/C=C/C(=O)O` are 9 nM, 62 nM and 3.7.
On to `COc1nc(NC(=O)C2(NC(=O)c3ccc4c(C5CCCC5)c(-c5ccc(F)cn5)n(C)c4c3)CCC2)ccc1/C=C/C(=O)O`, for which the EC50 in data set [1] turned out to be 12 nM; in data set [2], 68 nM. In addition, the log distribution coefficient (logD) in data set [3] was 4.
`COc1nc(NC(=O)C2(NC(=O)c3ccc4c(C5CCCC5)c(-c5cnccn5)n(C)c4c3)CCC2)ccc1/C=C/C(=O)O`: the results for the EC50 in data set [1] and in data set [2] were 13 nM and 46 nM, respectively. In data set [3], this molecule gave a logD of 3.3.
For `COc1nc(NC(=O)C2(NC(=O)c3ccc4c(c3)c(C)c(-c3ccc(F)cn3)n4C3CCCCC3)CCC2)ccc1/C=C/C(=O)O`, in that order: 10 nM, 52 nM and 4.2.
In the case of `COc1nc(NC(=O)C2(NC(=O)c3ccc4c(c3)c(C)c(-c3ccc(F)cn3)n4C3CCCCC3)CCC2)cnc1/C=C/C(=O)O`, the EC50 in data set [1] is 17 nM; in data set [2], 310 nM. The molecule also registered a logD in data set [3] of 3.3.
With `COc1nc(NC(=O)C(C)(C)NC(=O)c2ccc3c(C4CCCC4)c(-c4ccc(F)cn4)n(C)c3c2)ccc1/C=C/C(=O)O`, the half-maximal effective concentration (EC50) in data set [1] worked out at 12 nM; in data set [2], 67 nM. Further, in data set [3], the logD was 3.3.
In the case of `COc1nc(NC(=O)C(C)(C)NC(=O)c2ccc3c(C4CCCC4)c(-c4cncnc4)n(C)c3c2)ccc1/C=C/C(=O)O`, the results for the EC50 in data set [1] and in data set [2] were 23 nM and 72 nM, respectively. For the same molecule, the pH-dependent lipophilicity (logD) in data set [3] stood at 2.2.
For the molecule `COc1nc(NC(=O)C(C)(C)NC(=O)c2ccc3c(C4CCCC4)c(-c4ncc(Cl)cn4)n(C)c3c2)cnc1/C=C/C(=O)O`, the EC50 worked out at 17 nM in data set [1] and 270 nM in data set [2]. The log distribution coefficient (logD) in data set [3] stood at 2.6.
For `COc1nc(NC(=O)C2(NC(=O)c3ccc4c(c3)c(C)c(-c3ccc(F)cn3)n4C3CCCCC3)CCCC2)cnc1/C=C/C(=O)O`, in that order: 14 nM, 54 nM and 3.2.
